Measured values published in US8906908B2, “Hydroxybupropion analogues for treating drug dependence” (priority 2010, dated 2014).

How the values were obtained:
[1] = tested on: Male Institute of Cancer Research (ICR) mice; test: Locomotor activity, antagonism of nicotine effect; type: in vivo; conditions: for AD50 Locomotion: pretreatment 15 min before nicotine […] s.c.
Description: (§1) Animals: Male Institute of Cancer Research (ICR) mice (weighing 20-25 g) obtained from Harlan (Indianapolis, Ind.) were used throughout the study. Animals were housed in an Association for Assessment and Accreditation of Laboratory Animal Care-approved facility, were placed in groups of six, and had free access to food and water. Studies were approved by the Institutional Animal Care and Use Committee of Virginia Commonwealth University.
Locomotor Activity: Mice were placed into individual Omnitech photocell activity cages (28×16.5 cm; Omnitech Electronics, Columbus, Ohio) 5 min after subcutaneous administration of either 0.9% saline or nicotine (1.5 mg/kg). Interruptions of the photocell beams (two banks of eight cells each) were then recorded for the next 10 min. Data were expressed as the number of photocell interruptions.

α4β4-nAChR = target: T1, α4β4-nAChR (Homo sapiens, UniProt P30926+P43681); test: 86Rb+ efflux nAChR functional assay, SH-EP1-hα4β4 cells; type: cell-based; conditions: EC80-EC90 carbamylcholine, parentheses = S.E.M. as multiplication/division factor, read-out: nAChR inhibition IC50 α4β4
T1 construct: expressed in transfected cells; host or cells: SH-EP1 epithelial cells (SH-EP1-hα4β4)
T1 sequence (P43681 29-627 limits assumed): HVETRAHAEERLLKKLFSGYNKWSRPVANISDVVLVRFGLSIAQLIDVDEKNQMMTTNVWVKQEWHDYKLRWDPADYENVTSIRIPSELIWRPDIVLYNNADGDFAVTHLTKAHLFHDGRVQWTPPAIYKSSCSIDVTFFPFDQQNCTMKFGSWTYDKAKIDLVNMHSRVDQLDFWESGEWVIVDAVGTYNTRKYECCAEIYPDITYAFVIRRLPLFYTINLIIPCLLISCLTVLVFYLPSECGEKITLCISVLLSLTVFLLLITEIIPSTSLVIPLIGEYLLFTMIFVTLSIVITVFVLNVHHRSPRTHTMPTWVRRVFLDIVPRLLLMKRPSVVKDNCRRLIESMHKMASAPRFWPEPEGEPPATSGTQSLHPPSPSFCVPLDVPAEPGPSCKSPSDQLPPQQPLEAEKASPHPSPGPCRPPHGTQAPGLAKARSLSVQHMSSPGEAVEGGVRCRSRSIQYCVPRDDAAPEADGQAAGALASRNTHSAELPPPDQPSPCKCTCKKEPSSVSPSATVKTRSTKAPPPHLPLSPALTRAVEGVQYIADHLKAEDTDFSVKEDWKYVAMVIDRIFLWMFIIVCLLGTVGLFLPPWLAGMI
T1 sequence (P30926 22-498): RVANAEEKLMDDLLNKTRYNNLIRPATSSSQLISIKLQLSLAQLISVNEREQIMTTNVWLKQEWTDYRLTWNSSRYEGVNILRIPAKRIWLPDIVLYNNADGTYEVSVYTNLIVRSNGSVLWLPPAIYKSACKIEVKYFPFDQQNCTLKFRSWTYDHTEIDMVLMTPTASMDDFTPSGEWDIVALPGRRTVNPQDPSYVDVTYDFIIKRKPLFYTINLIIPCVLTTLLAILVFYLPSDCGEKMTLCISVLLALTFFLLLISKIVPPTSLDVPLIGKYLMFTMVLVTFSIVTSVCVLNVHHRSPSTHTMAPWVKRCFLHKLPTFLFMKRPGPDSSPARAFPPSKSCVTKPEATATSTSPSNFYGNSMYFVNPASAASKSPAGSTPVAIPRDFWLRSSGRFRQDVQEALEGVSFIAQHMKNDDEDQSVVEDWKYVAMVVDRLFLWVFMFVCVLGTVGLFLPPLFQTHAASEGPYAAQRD
Description: (§2) Cell Lines and Culture: Human embryonic kidney (HEK-293) cells stably expressing human DAT, NET or SERT were maintained as previously described in Eshleman, A. J.; Carmolli, M.; Cumbay, M.; Martens, C. R.; Neve, K. A.; Janowsky, A., J. Pharmacol. Exp. Ther. 1999, 289, (2), 877-885. Use was made of several human cell lines that naturally or heterologously express specific, functional, human nAChR subtypes. Cells of the TE671/RD line naturally expresses muscle-type nAChR (a1β1γδ- or α1*-nAChR), and SH-SY5Y neuroblastoma cells naturally expresses autonomic α3β4*-nAChRs (containing α3, β4, probably α5, and sometimes β2 subunits). Different clones of SH-EP1 epithelial cell lines have been engineered to heterologously express either α4β2-nAChR, which are thought to be the most abundant, high affinity nicotine-binding nAChR in mammalian brain, or α4β4-nAChR, another possible brain nAChR subtype (SH-EP1-hα4β2 or α4β4 cells, respectively). These cells were maintained as low passage number (1-26 from our frozen stocks) cultures to ensure stable expression of native or heterologously-expressed nAChR as previously described (see Lukas, R. J.; Fryer, J. D.; Eaton, J. B.; L., G. C., Some methods for studies of nicotinic acetylcholine receptor pharmacology, in Nicotinic receptors and the Nervous System, Levine, E. D., Ed. CRC Press: Boca Raton, 2002; pp 3-27, incorporated herein by reference in its entirety). Cells were passaged once weekly by splitting just-confluent cultures 1/300 (TE671/RD), 1/5 (SH-SY5Y), or 1/20 (transfected SH-EP1) in serum-supplemented medium to maintain log-phase growth.
After cells had adhered (generally overnight, but no sooner than 4 h later), the medium was removed and replaced with 250 μL per well of complete medium supplemented with ˜350,000 cpm of ^86Rb^+ (PerkinElmer Life and Analytical Sciences, Boston, Mass.) and counted at 40% efficiency using Cerenkov counting (TriCarb 1900 liquid scintillation analyzer[…]; PerkinElmer Life Sciences).
After at least 4 h and typically overnight, ^86Rb^+ efflux was measured using the “flip-plate” technique. See Lukas, R. J.; Fryer, J. D.; Eaton, J. B.; L., G. C., Some methods for studies of nicotinic acetylcholine receptor pharmacology, in Nicotinic receptors and the Nervous System, Levine, E. D., Ed. CRC Press: Boca Raton, 2002; pp 3-27, incorporated herein by reference in its entirety). Briefly, after aspiration of the bulk of ^86Rb^+ loading medium from each well of the “cell plate,” each well containing cells was rinsed 3× with 2 mL of fresh ^86Rb^+ efflux buffer (130 mM NaCl, 5.4 mM KCl, 2 mM CaCl2, 5 mM glucose, 50 mM HEPES, pH 7.4) to remove extracellular ^86Rb^+. Following removal of residual rinse buffer by aspiration, the flip-plate technique was used again to simultaneously introduce 1.5 mL of fresh efflux buffer containing drugs of choice at indicated final concentrations from a 24-well “efflux/drug plate” into the wells of the cell plate. After a 5 min incubation, the solution was “flipped” back into the efflux/drug plate, and any remaining buffer in the cell plate was removed by aspiration. Cells remaining in the cell plate were lysed and suspended by addition of 1.5 mL of 0.1 M NaOH, 0.1% sodium dodecyl sulfate to each well.
Similarly, the sum of ^86Rb^+ in cell plates and efflux/drug plates also determined the efficiency of ^86Rb^+ loading (the percentage of applied ^86Rb^+ actually loaded into cells).
Specific efflux was then taken as the difference in control samples between total and non-specific ^86Rb^+ efflux. Any intrinsic agonist activity of test drugs was ascertained using samples containing test drug only at different concentrations and was normalized, after subtraction of non-specific efflux, to specific efflux in test drug-free, control samples.

NE transporters [h(NET)] = target: T2, NE transporters [h(NET)] (Homo sapiens, UniProt P23975); test: Inhibition of [3H]norepinephrine uptake into HEK293 cells stably expressing hNET; type: cell-based; conditions: for IC50: HEK293-hNET, mean ± standard error of three independent experiments, read-out: monoamine uptake inhibition IC50 [3H]NE
T2 construct: expressed in transfected cells; host or cells: HEK-293
T2 sequence (P23975 whole entry): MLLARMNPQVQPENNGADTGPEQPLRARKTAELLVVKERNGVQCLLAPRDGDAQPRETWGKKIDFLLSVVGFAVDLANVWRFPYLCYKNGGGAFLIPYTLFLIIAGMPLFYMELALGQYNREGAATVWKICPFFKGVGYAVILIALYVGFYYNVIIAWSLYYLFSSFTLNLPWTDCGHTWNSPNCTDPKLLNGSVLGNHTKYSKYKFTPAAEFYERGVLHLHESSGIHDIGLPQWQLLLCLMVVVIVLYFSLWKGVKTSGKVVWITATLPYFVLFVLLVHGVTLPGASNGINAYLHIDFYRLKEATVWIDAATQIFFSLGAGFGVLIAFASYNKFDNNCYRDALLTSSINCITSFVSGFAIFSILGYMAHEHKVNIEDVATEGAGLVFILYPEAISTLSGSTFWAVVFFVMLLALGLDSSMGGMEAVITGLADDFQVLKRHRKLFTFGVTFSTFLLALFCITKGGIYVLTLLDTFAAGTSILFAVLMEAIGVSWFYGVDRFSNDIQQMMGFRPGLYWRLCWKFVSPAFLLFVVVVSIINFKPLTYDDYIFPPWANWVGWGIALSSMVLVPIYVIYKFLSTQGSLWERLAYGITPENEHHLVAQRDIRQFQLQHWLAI
Description: as §2
See, for example, Damaj, M. I.; Carroll, F. I.; Eaton, J. B.; Navarro, H. A.; Blough, B. E.; Mirza, S.; Lukas, R. J.; Martin, B. R., Mol. Pharmacol. 2004, 66, (3), 675-682 and Eshleman, A. J.; Carmolli, M.; Cumbay, M.; Martens, C. R.; Neve, K. A.; Janowsky, A., J. Pharmacol. Exp. Ther. 1999, 289, (2), 877-885, both incorporated by reference herein in their entireties.

[2] = tested on: Male Institute of Cancer Research (ICR) mice; test: Tail-flick test, blockade of nicotine-induced antinociception; type: in vivo; conditions: Mus musculus, 5 min, mice; pretreatment 15 min before nicotine 2.5 mg/kg s.c.; tested 5 min after nicotine; read-out: AD50 Tail-flick
Description: as §1
Tail-Flick Test: Antinociception for pain mediated at the spinal level was assessed by the tail-flick method of D'Amour, F. E.; Smith, D. L., J. Pharmacol. Exp. Ther. 1941, 72, 74-79, incorporated herein by reference in its entirety. In brief, mice were lightly restrained while a radiant heat source was shone onto the upper portion of the tail. To minimize tissue damage, a maximum latency of 10 s was imposed. Latency to remove the tail from the heat source was recorded for each animal. […] Antinociceptive response was calculated as the percentage of maximum possible effect (% MPE), where % MPE=[(test control)/(10 control)]×100.

SMILES	ED50 ([1]; Mus musculus, pretreatment 15 min before nicotine 1.5 mg/kg s.c., read-out: AD50 Locomotion) [mg/kg]	IC50 (α4β4-nAChR) [µM]	IC50 (NE transporters [h(NET)]) [µM]	selectivity for inhibition of NE over DA uptake (NE transporters [h(NET)]; ratio of uptake IC50 values) [fold]	ED50 [2] [mg/kg]	AD50 Locomotion [1]
CC[C@@H]1NC(C)(C)CO[C@@]1(O)c1cccc(Cl)c1 [Compound 4s, (2S,3S)-2-(3-Chlorophenyl)-3-ethyl-5,5-dimethylmorpholin-2-ol]	10.3	16	0.043	5	0.004	–
C[C@@H]1N(C)C(C)(C)CO[C@@]1(O)c1cccc(Cl)c1 [Compound 4u, (2S,3S)-2-(3-Chlorophenyl)-3,4,5,5-tetramethylmorpholin-2-ol]	–	43	0.415 ± 0.009	–	0.016	IA (IA: AD50 > 15 mg/kg)
C[C@@H]1N(C)C(C)(C)CO[C@@]1(O)c1ccc(Cl)cc1 [Compound 4v, (2S,3S)-2-(4-Chlorophenyl)-3,4,5,5-tetramethylmorpholin-2-ol]	–	91	0.527 ± 0.104	–	0.32	IA (IA: AD50 > 15 mg/kg)
